Reference: ChEMBL document CHEMBL5385907, “Proline-Hinged α-Helical Peptides Sensitize Gram-Positive Antibiotics, Expanding Their Physicochemical Properties to Be Used as Gram-Negative Antibiotics” (J Med Chem, 2024)
In brackets after ≈: the same amount, converted by molar mass. Activity calls are given as the source filed them. The rule behind the calls is not given here. Residues, ends and D or L forms follow the SMILES beside them. *: point of attachment. X1 = CN(C)c1ccc2c(-c3ccc(C(=O)*)cc3C(=O)[O-])c3ccc(N(C)C)cc3[o+]c2c1; Octanoyl = CCCCCCCC(=O)*

Columns and labels:
Escherichia coli [1] = assay: Antibacterial activity against Escherichia coli ATCC 25922 assessed as inhibition of bacterial growth incubated for 18 hrs by two fold serial dilution assay; format: functional
Acinetobacter baumannii [2] = assay: Antibacterial activity against Acinetobacter baumannii ATCC 17978 assessed as inhibition of bacterial growth incubated for 18 hrs by two fold serial dilution assay; format: functional
Klebsiella pneumoniae [3] = assay: Antibacterial activity against Klebsiella pneumoniae ATCC 700603 assessed as inhibition of bacterial growth incubated for 18 hrs by two fold serial dilution assay; format: functional
[4] = Hemolytic activity in human blood assessed as hemolysis incubated for 6 hrs by microplate reader analysis; format: toxicity, tissue-based
[5] = Hydrophobicity of the compound assessed as retention time by reversed-phase HPLC analysis; format: physicochemical
Lipopolysaccharide (LPS) = assay: Displacement of BODIPY-TR-cadaverine from Escherichia coli O128:B12 LPS assessed as effective dose incubated for 1 hr by fluorescence microplate reader assay
Escherichia coli [6] = assay: Antibacterial activity against Escherichia coli ATCC 25922 assessed as inhibition of bacterial growth incubated for 18 hrs in presence of rifampicin with calcium and Mg2+ broth media by two fold serial dilution assay; format: functional, organism-based
Acinetobacter baumannii [7] = assay: Antibacterial activity against Acinetobacter baumannii ATCC 17978 assessed as inhibition of bacterial growth incubated for 18 hrs in presence of rifampicin with calcium and Mg2+ broth media by two fold serial dilution assay; format: functional, organism-based
Klebsiella pneumoniae [8] = assay: Antibacterial activity against Klebsiella pneumoniae ATCC 700603 assessed as inhibition of bacterial growth incubated for 18 hrs in presence of rifampicin with calcium and Mg2+ broth media by two fold serial dilution assay; format: functional, organism-based
Cell membrane [9] = assay: Induction of outer membrane permeabilization in Escherichia coli ATCC 25922 assessed as increase in fluorescence by measuring fold change by NPN-dye based fluorescence analysis; format: subcellular
Escherichia coli [10] = assay: Antibacterial activity against Escherichia coli ATCC 25922 assessed as fold increase in bacterial growth inhibition incubated for 1 hr by propidium iodide staining based fluorescence assay; format: functional
Escherichia coli [11] = assay: (§1) Potentiation of rifampicin induced antibacterial activity against NDM1-producing carbapenem-resistant Escherichia coli infected CD1 mouse sepsis model assessed as reduction in bacterial colony forming unit in lung tissue at 25 mg/kg,SC administrated after 2 hrs of post-infection in presence of rifampicin; format: functional, organism-based
Escherichia coli [12] = assay: as §1, with “after 6” for “after 2”; format: functional, organism-based
Escherichia coli [13] = assay: Potentiation of rifampicin induced antibacterial activity against NDM1-producing carbapenem-resistant Escherichia coli infected CD1 mouse sepsis model assessed as reduction in bacterial colony forming unit in blood at 25 mg/kg,SC administrated after 2 hrs of post-infection in presence of rifampicin; format: functional
Escherichia coli [14] = assay: Potentiation of rifampicin induced antibacterial activity against NDM1-producing carbapenem-resistant Escherichia coli infected CD1 mouse sepsis model assessed as reduction in bacterial colony forming unit in blood at 25 mg/kg,SC administrated after 6 hrs of post-infection in presence of rifampicin; format: functional
[15] = Cytotoxicity against human HK-2 cells assessed as cell growth inhibition incubated for 24 hrs by WST-1 reagent microplate reader assay; format: toxicity, cell-based
[16] = Nephrotoxicity in Sprague-Dawley rat assessed as increase in blood urea nitrogen level at 30 mg/kg,iv administration for 1 hr and measured after 25 hrs; format: toxicity, organism-based; conditions: in vivo, 26 h
[17] = Nephrotoxicity in Sprague-Dawley rat assessed as […] in creatinine level at 30 mg/kg,iv administration for 1 hr and measured after 25 hrs; format: toxicity, organism-based; conditions: in vivo, 26 h
[18] = Toxicity in male Sprague-Dawley rat assessed as reduction in body weight at 20 mg/kg,iv administration and observed on day 2; format: organism-based; conditions: in vivo, 48 h, time 2 day
[19] = Toxicity in male Sprague-Dawley rat assessed as reduction in body weight at 20 mg/kg,iv administration observed on day 14; format: organism-based; conditions: in vivo, 336 h, time 14 day
[20] = Toxicity in female Sprague-Dawley rat assessed as reduction in body weight at 20 to 60 mg/kg,iv administration observed on day 2; format: organism-based; conditions: in vivo, 48 h, dose 20-60 mg/kg, time 2 day
[21] = Toxicity in male Sprague-Dawley rat assessed as reduction in body weight at 40 mg/kg,iv administration observed on day 14 relative to control; format: organism-based; parameters: scale not given: the % may be the effect or the level left; conditions: in vivo, 336 h, time 14 day
[22] = Toxicity in male Sprague-Dawley rat assessed as reduction in body weight at 60 mg/kg,iv administration observed on day 14 relative to control; format: organism-based; parameters: scale not given: the % may be the effect or the level left; conditions: in vivo, 336 h, time 14 day
[23] = Toxicity in female Sprague-Dawley rat assessed as reduction in body weight at 20 to 60 mg/kg,iv administration observed on day 4; format: organism-based; conditions: in vivo, 96 h, dose 20-60 mg/kg, time 4 day
[24] = Toxicity in male Sprague-Dawley rat assessed as no observed adverse effect level at iv administration and observed on day 14; format: organism-based; conditions: in vivo, time 14 day
[25] = Toxicity in female Sprague-Dawley rat assessed as no observed adverse effect level at iv administration and observed on day 14; format: organism-based; conditions: in vivo, time 14 day
[26] = AUClast in CD1 mouse at 1 mg/kg,iv administration measured upto 1 hr by LC-MS/MS analysis; format: ADME, organism-based; parameters: time < 1 hrs, dose 1 mg/kg, route iv; conditions: in vivo
[27] = AUClast in CD1 mouse at 3 mg/kg,iv administration measured upto 1 hr by LC-MS/MS analysis; format: ADME, organism-based; parameters: dose 3 mg/kg, time < 1 hrs, route iv; conditions: in vivo
[28] = AUClast in CD1 mouse at 10 mg/kg,iv administration measured upto 1 hr by LC-MS/MS analysis; format: ADME, organism-based; parameters: time < 1 hrs, dose 10 mg/kg, route iv; conditions: in vivo
[29] = Clearance in CD1 mouse at 1 mg/kg,iv administration measured upto 1 hr by LC-MS/MS analysis; format: ADME, organism-based; conditions: in vivo
[30] = Clearance in CD1 mouse at 3 mg/kg,iv administration measured upto 1 hr by LC-MS/MS analysis; format: ADME, organism-based; conditions: in vivo
[31] = Clearance in CD1 mouse at 10 mg/kg,iv administration measured upto 1 hr by LC-MS/MS analysis; format: ADME, organism-based; conditions: in vivo
[32] = AUClast in Sprague-Dawley rat at 3 mg/kg,iv administration measured upto 24 hr by LC-MS/MS analysis; format: ADME, organism-based; parameters: time < 24 hrs, dose 3 mg/kg, route iv; conditions: in vivo
[33] = Clearance in Sprague-Dawley rat at 3 mg/kg,iv administration measured upto 24 hr by LC-MS/MS analysis; format: ADME, organism-based; conditions: in vivo
[34] = Volume of distribution in Sprague-Dawley rat at 3 mg/kg,iv administration measured upto 24 hr by LC-MS/MS analysis; format: ADME, organism-based; conditions: in vivo
Cell membrane [35] = assay: Induction of outer membrane disruption in Acinetobacter baumannii ATCC 17978 at 5 uM incubated for 30 mins by confocal laser scanning microscopy; format: subcellular
[36] = Drug localization in Acinetobacter baumannii ATCC 17978 assessed as increase in fluorescence at cytosol at 5 uM incubated for 30 mins by confocal laser scanning microscopy; format: ADME, subcellular; conditions: 0.5 h
[37] = Drug localization in Escherichia coli ATCC 25922 assessed as increase in fluorescence at membrane at […] incubated for 30 mins by confocal laser scanning microscopy; format: ADME, cell membranes; conditions: 0.5 h, dose 0.63 µM
[38] = Drug localization in Escherichia coli ATCC 25922 assessed as increase in fluorescence at membrane at […] by fluorescence-activated cell sorting analysis; format: ADME, cell membranes; conditions: dose 0.13 µM

CCCCCCCC(=O)N[C@@H](CCCCN)C(=O)N[C@@H](CCCCN)C(=O)N[C@@H](C)C(=O)N[C@@H](C)C(=O)N[C@@H](CCCCN)C(=O)N[C@@H](C)C(=O)N[C@@H](C)C(=O)N[C@@H](CCCCN)C(=O)N[C@@H](CCCCN)C(=O)N1CCC[C@H]1C(=O)N[C@@H](C)C(=O)N[C@@H](CCCCN)C(=O)N[C@@H](C)C(=O)N[C@@H](C)C(=O)N[C@@H](CCCCN)C(N)=O (HELM PEPTIDE1{[CCCCCCCC(=O)[*:2]].K.K.A.A.K.A.A.K.K.P.A.K.A.A.K.[am]}$$$$V2.0)
MIC (Escherichia coli [1]): > 80 µM | MIC (Acinetobacter baumannii [2]): > 80 µM | MIC (Klebsiella pneumoniae [3]): > 80 µM | MHC10 [4]: > 160 µM | Retention_time [5]: 13.7 min | ED50 (Lipopolysaccharide (LPS)): inactive

CCCCCCCC(=O)N[C@@H](CCCCN)C(=O)N[C@@H](CCCCN)C(=O)N[C@@H](C)C(=O)N[C@@H](CC(C)C)C(=O)N[C@@H](CCCCN)C(=O)N[C@@H](CC(C)C)C(=O)N[C@@H](C)C(=O)N[C@@H](CCCCN)C(=O)N[C@@H](CCCCN)C(=O)N1CCC[C@H]1C(=O)N[C@@H](CC(C)C)C(=O)N[C@@H](CCCCN)C(=O)N[C@@H](CC(C)C)C(=O)N[C@@H](CC(C)C)C(=O)N[C@@H](CCCCN)C(N)=O (HELM PEPTIDE1{[CCCCCCCC(=O)[*:2]].K.K.A.L.K.L.A.K.K.P.L.K.L.L.K.[am]}$$$$V2.0)
MIC (Escherichia coli [1]): > 80 µM | MIC (Acinetobacter baumannii [2]): 20 µM (≈ 36.9 µg/mL) | MIC (Klebsiella pneumoniae [3]): > 80 µM | MHC10 [4]: > 160 µM | Retention_time [5]: 18.1 min | Activity (Escherichia coli [6]): inactive | Activity (Acinetobacter baumannii [7]): inactive | Activity (Klebsiella pneumoniae [8]): inactive | fold change (FC) (Cell membrane [9]): 10 | fold change (FC) (Escherichia coli [10]): 10 | Activity (Escherichia coli [11]): Active | Activity (Escherichia coli [12]): Active | Activity (Escherichia coli [13]): >4 log10CFU | Activity (Escherichia coli [14]): >4 log10CFU | IC50 at 24 h [15]: 86.9 µM | Activity [16]: 19 mg/dL | Activity [17]: 0.28 mg/dL | Activity [18]: Toxic | Activity [19]: Non-Toxic | Activity [20]: Toxic | Activity [21]: 9% | Activity [22]: 9% | Activity [23]: Non-Toxic | NOAEL at 336 h [24]: 20 mg/kg | NOAEL at 336 h [25]: 60 mg/kg | AUClast [26]: 88.9 ng·h/mL | AUClast [27]: 263 ng·h/mL | AUClast [28]: 941 ng·h/mL | clearance [29]: 218 mL/min/kg | clearance [30]: 182 mL/min/kg | clearance [31]: 190 mL/min/kg | AUClast [32]: 246 ng·h/mL | clearance [33]: 192 mL/min/kg | Vd [34]: 3.07 L/kg

CCCCCCCC(=O)N[C@@H](CCCCNC(=O)c1ccc(-c2c3ccc(N(C)C)cc3[o+]c3cc(N(C)C)ccc23)c(C(=O)[O-])c1)C(=O)N[C@@H](CCCCN)C(=O)N[C@@H](C)C(=O)N[C@@H](CC(C)C)C(=O)N[C@@H](CCCCN)C(=O)N[C@@H](CC(C)C)C(=O)N[C@@H](C)C(=O)N[C@@H](CCCCN)C(=O)N[C@@H](CCCCN)C(=O)N1CCC[C@H]1C(=O)N[C@@H](CC(C)C)C(=O)N[C@@H](CCCCN)C(=O)N[C@@H](CC(C)C)C(=O)N[C@@H](CC(C)C)C(=O)N[C@@H](CCCCN)C(N)=O (Octanoyl-K(X1)KALKLAKKPLKLLK-NH2)
Activity (Cell membrane [35]): Active | Drug uptake [36]: Active | Drug uptake [37]: Active | Drug uptake [38]: Active
